# Key:
# HL-6O(TB) = experiment: NCI-60 SRB growth inhibition: HL-6O(TB); type: cell-based, human; details: Leukemia, 48 hours treatment
# RPMI-8226 = experiment: NCI-60 SRB growth inhibition: RPMI-8226; type: cell-based, human; details: RPMI-8226, Leukemia, 48 hours treatment; for CC50: Homo sapiens, read-out: LC50 (the source's name)
# A549/ATCC = experiment: NCI-60 SRB growth inhibition: A549/ATCC; type: cell-based, human; details: Non-small cell lung cancer, 48 hours treatment; for CC50: Homo sapiens, read-out: LC50 (the source's name)
# HOP-62 = experiment: NCI-60 SRB growth inhibition: HOP-62; type: cell-based, human; details: HOP-62, Non-small cell lung cancer; 48 hours treatment
# NCI-H226 = experiment: NCI-60 SRB growth inhibition: NCI-H226; type: cell-based, human; details: NCI-H226, Non-small cell lung cancer; 48 hours treatment
# NCI-H460 = experiment: NCI-60 SRB growth inhibition: NCI-H460; type: cell-based, human; details: NCI-H460, Non-small cell lung cancer, 48 hours treatment; for CC50: Homo sapiens, read-out: LC50 (the source's name)
# NCI-H522 = experiment: NCI-60 SRB growth inhibition: NCI-H522; type: cell-based, human; details: NCI-H522, Non-small cell lung cancer; 48 hours treatment
# HCC-2998 = experiment: NCI-60 SRB growth inhibition: HCC-2998; type: cell-based, human; details: HCC-2998, Colon cancer; 48 hours treatment
# HCT-116 = experiment: NCI-60 SRB growth inhibition: HCT-116; type: cell-based; details: HCT-116, Colon cancer; 48 hours treatment
# HCT-15 = experiment: NCI-60 SRB growth inhibition: HCT-15; type: cell-based, human; details: HCT-15, Colon cancer; 48 hours treatment
# HT29 = experiment: NCI-60 SRB growth inhibition: HT29; type: cell-based, human; details: HT29, Colon cancer, 48 hours treatment; for CC50: Homo sapiens, HT-29, read-out: LC50 (the source's name)
# SF-268 = experiment: NCI-60 SRB growth inhibition: SF-268; type: cell-based, human; details: SF-268, CNS cancer; 48 hours treatment
# SNB-19 = experiment: NCI-60 SRB growth inhibition: SNB-19; type: cell-based, human; details: SNB-19, CNS cancer, 48 hours treatment; for CC50: Homo sapiens, read-out: LC50 (the source's name)
# SNB-75 = experiment: NCI-60 SRB growth inhibition: SNB-75; type: cell-based, human; details: SNB-75, CNS cancer, 48 hours treatment; for CC50: Homo sapiens, read-out: LC50 (the source's name)
# MALME-3M = experiment: NCI-60 SRB growth inhibition: MALME-3M; type: cell-based, human; details: Melanoma, 48 hours treatment
# M14 = experiment: NCI-60 SRB growth inhibition: M14; type: cell-based, human; details: M14, Melanoma, 48 hours treatment; for CC50: Homo sapiens, read-out: LC50 (the source's name)
# MDA-MB-435 = experiment: NCI-60 SRB growth inhibition: MDA-MB-435; type: cell-based, human; details: MDA-MB-435, Melanoma, 48 hours treatment; for CC50: Homo sapiens, read-out: LC50 (the source's name)
# SK-MEL-28 = experiment: NCI-60 SRB growth inhibition: SK-MEL-28; type: cell-based, human; details: SK-MEL-28, Melanoma, 48 hours treatment; for CC50: Homo sapiens, read-out: LC50 (the source's name)
# SK-MEL-5 = experiment: NCI-60 SRB growth inhibition: SK-MEL-5; type: cell-based, human; details: SK-MEL-5, Melanoma; 48 hours treatment
# OVCAR-3 = experiment: NCI-60 SRB growth inhibition: OVCAR-3; type: cell-based, human; details: OVCAR-3, Ovarian cancer; 48 hours treatment
# OVCAR-5 = experiment: NCI-60 SRB growth inhibition: OVCAR-5; type: cell-based, human; details: OVCAR-5, Ovarian cancer, 48 hours treatment; for CC50: Homo sapiens, read-out: LC50 (the source's name)
# NCI/ADR-RES = experiment: NCI-60 SRB growth inhibition: NCI/ADR-RES; type: cell-based, human; details: Ovarian cancer, 48 hours treatment; for CC50: Homo sapiens, read-out: LC50 (the source's name)
# SK-OV-3 = experiment: NCI-60 SRB growth inhibition: SK-OV-3; type: cell-based, human; details: SK-OV-3, Ovarian cancer; 48 hours treatment
# 786-0 = experiment: NCI-60 SRB growth inhibition: 786-0; type: cell-based, human; details: 786-0, Renal cancer; 48 hours treatment
# CAKI-1 = experiment: NCI-60 SRB growth inhibition: CAKI-1; type: cell-based, human; details: CAKI-1, Renal cancer; 48 hours treatment
# RXF 393 = experiment: NCI-60 SRB growth inhibition: RXF 393; type: cell-based, human; details: RXF 393, Renal cancer, 48 hours treatment; for CC50: Homo sapiens, read-out: LC50 (the source's name)
# UO-31 = experiment: NCI-60 SRB growth inhibition: UO-31; type: cell-based, human; details: UO-31, Renal cancer; 48 hours treatment
# PC-3 = experiment: NCI-60 SRB growth inhibition: PC-3; type: cell-based, human; details: PC-3, Prostate cancer; 48 hours treatment
# DU-145 = experiment: NCI-60 SRB growth inhibition: DU-145; type: cell-based, human; details: for TGI: DU-145, Prostate cancer, 48 hours treatment; for CC50: Homo sapiens, DU-145, 48 h, read-out: LC50 (the source's name)
# MDA-MB-231/ATCC = experiment: NCI-60 SRB growth inhibition: MDA-MB-231/ATCC; type: cell-based, human; details: Breast cancer, 48 hours treatment
# HS 578T = experiment: NCI-60 SRB growth inhibition: HS 578T; type: cell-based, human; details: Breast cancer, 48 hours treatment; for CC50: Homo sapiens, read-out: LC50 (the source's name)
# T-47D = experiment: NCI-60 SRB growth inhibition: T-47D; type: cell-based, human; details: Breast cancer, 48 hours treatment; for CC50: Homo sapiens, T47D, read-out: LC50 (the source's name)
# MDA-MB-468 = experiment: NCI-60 SRB growth inhibition: MDA-MB-468; type: cell-based, human; details: MDA-MB-468, Breast cancer, 48 hours treatment; for CC50: Homo sapiens, read-out: LC50 (the source's name)
smiles,measurement,setting,value
"c1ccc(Cc2cnc(N3CCN(c4ncnc5ccccc45)CC3)nc2)cc1 [Compound 4, 4-(4-(5-benzylpyrimidin-2-yl)piperazin-1-yl)quinazoline]",TGI,HL-6O(TB),41.80 µM
same,CC50,RPMI-8226,97.3 µM
same,TGI,RPMI-8226,21.80 µM
same,CC50,A549/ATCC,> 100 µM
same,TGI,A549/ATCC,35.70 µM
same,TGI,HOP-62,51.60 µM
same,TGI,NCI-H226,48.40 µM
same,CC50,NCI-H460,55 µM
same,TGI,NCI-H460,23.70 µM
same,TGI,NCI-H522,40.30 µM
same,TGI,HCC-2998,60.90 µM
same,TGI,HCT-116,13.20 µM
same,TGI,HCT-15,63.20 µM
same,TGI,HT29,35.10 µM
same,CC50,HT29,79.2 µM
same,TGI,SF-268,57.20 µM
same,CC50,SNB-19,> 100 µM
same,TGI,SNB-19,>100 µM
same,CC50,SNB-75,> 100 µM
same,TGI,SNB-75,78.20 µM
same,TGI,MALME-3M,33.60 µM
same,CC50,M14,51.6 µM
same,TGI,M14,26.30 µM
same,CC50,MDA-MB-435,91.4 µM
same,TGI,MDA-MB-435,27.50 µM
same,CC50,SK-MEL-28,> 100 µM
same,TGI,SK-MEL-28,99.30 µM
same,TGI,SK-MEL-5,13.90 µM
same,TGI,OVCAR-3,23.20 µM
same,CC50,OVCAR-5,> 100 µM
same,TGI,OVCAR-5,69.80 µM
same,CC50,NCI/ADR-RES,66.4 µM
same,TGI,NCI/ADR-RES,17.60 µM
same,TGI,SK-OV-3,>100 µM
same,TGI,786-0,36.70 µM
same,TGI,CAKI-1,39.30 µM
same,CC50,RXF 393,> 100 µM
same,TGI,RXF 393,57.90 µM
same,TGI,UO-31,38.40 µM
same,TGI,PC-3,>100 µM
same,TGI,DU-145,30.70 µM
same,CC50,DU-145,79.8 µM
same,TGI,MDA-MB-231/ATCC,38.10 µM
same,TGI,HS 578T,54.80 µM
same,CC50,HS 578T,> 100 µM
same,TGI,T-47D,45.50 µM
same,CC50,T-47D,> 100 µM
same,CC50,MDA-MB-468,> 100 µM
same,TGI,MDA-MB-468,2.73 µM
"CCc1cnc(N2CCN(C(=O)c3ccc(CNc4ncnc5ccccc45)cc3)CC2)nc1 [Compound 15, (4-(5-ethylpyrimidin-2-yl)piperazin-1-yl)(4-((quinazolin-4-ylamino)methyl)phenyl)methanone]",TGI,HL-6O(TB),38.60 µM
same,CC50,RPMI-8226,> 100 µM
same,TGI,RPMI-8226,14.30 µM
same,CC50,A549/ATCC,> 100 µM
same,TGI,A549/ATCC,>100 µM
same,TGI,HOP-62,>100 µM
same,TGI,NCI-H226,>100 µM
same,CC50,NCI-H460,> 100 µM
same,TGI,NCI-H460,30.70 µM
same,TGI,NCI-H522,55.40 µM
same,TGI,HCC-2998,48.90 µM
same,TGI,HCT-116,25.00 µM
same,TGI,HCT-15,>100 µM
same,TGI,HT29,83.20 µM
same,CC50,HT29,> 100 µM
same,TGI,SF-268,>100 µM
same,CC50,SNB-19,> 100 µM
same,TGI,SNB-19,>100 µM
same,CC50,SNB-75,> 100 µM
same,TGI,SNB-75,58.20 µM
same,TGI,MALME-3M,42.20 µM
same,CC50,M14,93.7 µM
same,TGI,M14,32.70 µM
same,CC50,MDA-MB-435,> 100 µM
same,TGI,MDA-MB-435,>100 µM
same,CC50,SK-MEL-28,> 100 µM
same,TGI,SK-MEL-28,>100 µM
same,TGI,SK-MEL-5,2.90 µM
same,TGI,OVCAR-3,>100 µM
same,CC50,OVCAR-5,> 100 µM
same,TGI,OVCAR-5,>100 µM
same,CC50,NCI/ADR-RES,> 100 µM
same,TGI,NCI/ADR-RES,21.50 µM
same,TGI,SK-OV-3,>100 µM
same,TGI,786-0,54.80 µM
same,TGI,CAKI-1,94.80 µM
same,CC50,RXF 393,> 100 µM
same,TGI,RXF 393,41.60 µM
same,TGI,UO-31,60.50 µM
same,TGI,PC-3,>100 µM
same,TGI,DU-145,>100 µM
same,CC50,DU-145,> 100 µM
same,TGI,MDA-MB-231/ATCC,84.90 µM
same,TGI,HS 578T,>100 µM
same,CC50,HS 578T,> 100 µM
same,TGI,T-47D,>100 µM
same,CC50,T-47D,> 100 µM
same,CC50,MDA-MB-468,> 100 µM
same,TGI,MDA-MB-468,2.22 µM
"O=C(c1cccc(Nc2ncnc3ccccc23)c1)N1CCN(c2ncc(Cc3ccccc3)cn2)CC1 [Compound 16, (4-(5-benzylpyrimidin-2-yl)piperazin-1-yl)(3-(quinazolin-4-ylamino)phenyl)methanone]",TGI,HL-6O(TB),1.54 µM
same,CC50,RPMI-8226,3.89 µM
same,TGI,RPMI-8226,0.60 µM
same,CC50,A549/ATCC,8.13 µM
same,TGI,A549/ATCC,3.09 µM
same,TGI,HOP-62,3.47 µM
same,TGI,NCI-H226,2.09 µM
same,CC50,NCI-H460,> 100 µM
same,TGI,NCI-H460,4.27 µM
same,TGI,NCI-H522,2.09 µM
same,TGI,HCC-2998,3.98 µM
same,TGI,HCT-116,3.55 µM
same,TGI,HCT-15,3.55 µM
same,TGI,HT29,9.33 µM
same,CC50,HT29,> 100 µM
same,TGI,SF-268,>100 µM
same,CC50,SNB-19,> 100 µM
same,TGI,SNB-19,8.91 µM
same,CC50,SNB-75,> 100 µM
same,TGI,SNB-75,5.89 µM
same,TGI,MALME-3M,2.57 µM
same,CC50,M14,4.68 µM
same,TGI,M14,2.14 µM
same,CC50,MDA-MB-435,4.57 µM
same,TGI,MDA-MB-435,2.14 µM
same,CC50,SK-MEL-28,5.25 µM
same,TGI,SK-MEL-28,2.82 µM
same,TGI,SK-MEL-5,1.20 µM
same,TGI,OVCAR-3,8.13 µM
same,CC50,OVCAR-5,> 100 µM
same,TGI,OVCAR-5,5.75 µM
same,CC50,NCI/ADR-RES,> 100 µM
same,TGI,NCI/ADR-RES,8.51 µM
same,TGI,SK-OV-3,4.47 µM
same,TGI,786-0,6.61 µM
same,TGI,CAKI-1,1.91 µM
same,CC50,RXF 393,> 100 µM
same,TGI,RXF 393,11.48 µM
same,TGI,UO-31,1.82 µM
same,TGI,PC-3,2.88 µM
same,TGI,DU-145,6.46 µM
same,CC50,DU-145,> 100 µM
same,TGI,MDA-MB-231/ATCC,2.95 µM
same,TGI,HS 578T,7.41 µM
same,CC50,HS 578T,> 100 µM
same,TGI,T-47D,7.59 µM
same,CC50,T-47D,5.62 µM
same,CC50,MDA-MB-468,> 100 µM
same,TGI,MDA-MB-468,3.47 µM

# Reference: patent US8609672B2, “Piperazinylpyrimidine analogues as protein kinase inhibitors” (University of the Pacific, priority 2010, dated 2013)
